Where a SMILES comes first, the peptide text is derived from it.

Turning to `Cc1cc(-c2cc(C)[nH+][nH]2)[nH]n1`, the pKa – broadly, the negative logarithm of the acid dissociation constant – (basic group) amounted to 0.4.
Compound `CC(=O)CC(=O)c1ccc[se]1` registered a pKa (acidic group) of 8.55.
For the compound `Cc1cc(-c2ccccc2)nn2cc(CN3CCOCC3)nc12`, the pKa (basic group) is 6.3.
Same read-out and setting: as for `COc1ccnc2c1ccc1c(OC)ccnc12`, the figure is 6.45.
Same read-out and setting: in the case of `CN1[C@@H]2CC[C@H]1C[C@H](O)C2` it was 10.3.
`CCC/C=C/C(=O)O` displayed a pKa (acidic group) of 4.71.
Regarding `c1cncc(-c2cccnc2)c1`, the pKa (basic group) was 4.6.
`O=C1NS(=O)(=O)c2ccccc21` returned a pKa (acidic group) of 1.76.
The compound `C[n+]1cc(O)cc2ccccc21` had a pKa (acidic group) of 5.42.
In turn, `Oc1cccc(-c2ccccc2)c1` had a pKa (acidic group) of 9.59.
`C[C@H]1C[C@@H]2CCN1C2` yielded a pKa (basic group) of 10.6.
As for `CN(C)/C=N/c1ccccc1O`, the pKa came out at 11 (acidic group) and 7.41 (basic group).
Take `Oc1ccc(O)[nH+]n1`: the pKa (acidic group) was -2.2.
On to `CCCN(N)CCC`, for which the pKa (basic group) was found to be 7.
Still for that read-out and setting: in the case of `CCC[NH2+]CCN` it was 7.54.
Under “acidic group”, `CCOc1ccc(C(=O)NC(=S)N(CC)CC)cc1` came in with a pKa of 8.83.
Same read-out and setting: as for `C[NH+](C)CCNC(=O)/C=N/O`, the figure is 8.17.
For the compound `CC(CO)CN(C)C` (stereo not drawn), the pKa (basic group) was determined as 9.75.
With `Oc1ccccc1CN1CCCC1`, the pKa by setting is: (acidic group) 10.8; (basic group) 8.81.
Under “basic group”, `CCNCc1ccc(C)cc1` showed a pKa of 10.
Compound `Oc1[nH+]cnc2ccccc12` registered a pKa (acidic group) of 2.12.
Still for that read-out and setting: as for `Cc1cc(C)c(O)c([N+](=O)[O-])c1`, the figure is 7.98.
In turn, `c1cncc(C2=NCCC2)c1` had a pKa (basic group) of 8.77.
The same measure, in the same setting: in the case of `CCOc1ccc(/N=C/N(C)C)cc1` it was 9.24.
Compound `Cc1ccccc1[Se]CC(=O)O` yielded a pKa (acidic group) of 3.79.
For the compound `OCCC[C@H]1CC[C@@H]2CCCN12`, the pKa (basic group) is 11.2.
On the same count and under the same terms, as for `CCC(N)(CC)CC`, the figure is 10.9.
`C(COCCc1nnn[nH]1)OCCc1nnn[nH]1`: the pKa (basic group) worked out at 4.79.
With `Cc1nc(NS(=O)(=O)c2ccc(N)cc2)sc1C`, the pKa (acidic group) was found to be 6.97.
`CCCCCC(C)NC` (stereo not drawn): the pKa (basic group) was determined as 11.
For `O=[N+]([O-])c1ccc(Nc2ccccc2)cc1`, the pKa (basic group) was -2.5.
As for `C=CC(=O)NC(C)(C)CCN(C)C`, the pKa (basic group) is 9.39.
`Cc1nccc2c1[nH]c1cc(O)ccc12`: the pKa stood at 9.47 (acidic group) and 7.39 (basic group).
Take `CCN(C)N(C)C`: the pKa (basic group) worked out at 6.38.
`CNN`: the pKa (basic group) stood at 7.87.
With `C[NH+]1CCC(n2nc(-c3ccccc3)c(Cc3ccccc3)c2O)CC1`, where the note is “acidic group”, the pKa amounted to 6.73.
The same measure, in the same setting: as for `FC(F)(F)c1cc(C(F)(F)F)[nH]n1`, the figure is 7.51.
On the same count and under the same terms, in the case of `O=C1CCCC2CCCC(=O)C12` (stereo not drawn) it was 11.1.
For `C[Si](C)(C)CCCN`, the pKa (basic group) stood at 10.8.
In turn, `O=P(O)(O)C([NH2+]Cc1cc[nH+]cc1)c1ccccc1O` (stereo not drawn) showed a pKa (acidic group) of 2.28.
Still for that read-out and setting: in the case of `O=C(NBr)c1ccccc1` it was 7.3.
Compound `Cc1ccc(N)cc1Cl` displayed a pKa (basic group) of 4.05.
As to `O=[N+]([O-])c1ccccc1/C=N\O`, the pKa (acidic group) was 10.7.
Consider `CN(C)c1ccc(/C=C/c2cc(N)c3ccccc3n2)cc1`, for which the pKa (basic group) was 9.7.
Same read-out and setting: as for `CCCCCNCCCCC`, the figure is 11.2; as for `C1CCc2nnc3c(c2CC1)CCCC3`, 6.03.
In turn, `O=C(NO)c1ccccn1` gave a pKa (acidic group) of 8.6.
Regarding `Nc1nc(N)nc([S-])n1`, the pKa (acidic group) is 10.2 and the pKa (basic group) is 7.8.
Take `O=C(O)c1cccc(C2CC2)c1`: under “acidic group”, the pKa worked out at 4.28.
Same read-out and setting: as for `CCC(C)(O)c1cnc(CC(C)C)c(O)[n+]1[O-]` (stereo not drawn), the figure is 5.02.
The same measure, in the same setting: as for `COC(=O)[n+]1ccc(C)cc1`, the figure is 6.15.
Take `CCn1cc(C#N)c(=O)c2ccccc21`: the pKa (basic group) was -1.55.
Consider `COc1ccc2c3c1O[C@H]1[C@@H](O)C=C[C@H]4[C@@H](C2)N(CCC#N)CC[C@@]341`, for which the pKa (basic group) turned out to be 5.68.
`CC[NH+]1CCC[C@@H]1CNC(=O)c1c(O)c(Br)cc(Br)c1OC` returned a pKa (acidic group) of 5.88.
The compound `CN(C)c1ccc2c(c1)Sc1cc([NH+](C)C)ccc1N2` had a pKa (basic group) of 5.27.
`O=C(O)CC1CCCCO1` (stereo not drawn) registered a pKa (acidic group) of 4.39.
Same read-out and setting: in the case of `C/C=C(\C(=O)O)c1ccc([N+](=O)[O-])cc1` it was 5.
Regarding `CCCCN`, under “basic group”, the pKa stood at 10.7.
`Nc1ccccc1[N+](=O)[O-]`: the pKa reads like this: (acidic group) 13.4; (basic group) -0.24.
Take `Nc1ccc(C(=O)[O-])c2ncccc12`: the pKa amounted to 12.6 (acidic group) and 8.46 (basic group).
On to `Cn1cncc1C[C@H](N)C(=O)[O-]`, for which, for the setting “basic group”, the pKa is 8.72.
On the same count and under the same terms, as for `C[N+](C)(C)CCN`, the figure is 7.34.
Turning to `NS(=O)(=O)c1cccc([N+](=O)[O-])c1`, the pKa (acidic group) was 9.19.
Still for that read-out and setting: in the case of `CC(S)C(=O)[O-]` (stereo not drawn) it was 10.1.
For the compound `CCN1CCCC=C1C`, the pKa (basic group) is 11.6.
For the setting “basic group”, `COc1ccc(-c2cc3cnccc3[nH]2)c(OC)c1` registered a pKa of 8.49.
On the same count and under the same terms, as for `O=C([O-])C1CCCCN1` (stereo not drawn), the figure is 10.6.
In the case of `O=C([O-])/C(=N/O)c1ccccc1`, under “acidic group”, the pKa worked out at 11.6.
The same measure, in the same setting: in the case of `CC(=O)NC(CS)C(=O)[O-]` (stereo not drawn) it was 9.62.
The same measure, in the same setting: as for `O=C1CNC(=O)[C@H](Cc2ccc(O)cc2)N1`, the figure is 9.47.
The same measure, in the same setting: as for `CC(C)CC(N)C(=O)NC(CC(N)=O)C(=O)O` (stereo not drawn) (H-Leu-Asn-OH; configuration not given here), the figure is 8.23.
`CCCCCCCCCCCCCCN`: the pKa (basic group) came out at 10.6.
`CCS(=O)O`: where the note is “acidic group”, the pKa was 2.27.
On to `NS(=O)(=O)c1cccc(C(F)(F)F)c1`, for which the pKa (acidic group) worked out at 8.98.
With `Cc1cnc2c(ccc3cccnc32)c1`, the pKa (basic group) was 5.
Under “basic group”, `CC[NH+](CC)CCCNc1ccnc2ccccc12` gave a pKa of 8.65.
On the same count and under the same terms, as for `Cc1cc([O-])ncn1`, the figure is 9.
`Cc1c([N+](=O)[O-])cc(Cl)c2nnn(O)c12` yielded a pKa (acidic group) of 3.17.
Same read-out and setting: as for `CCCCN(C(=O)c1cccc(O)c1)c1ccc(/N=N/c2ccc3c(c2)OCCOCCOCCOCCOCCO3)cc1`, the figure is 9.54; as for `COc1cc(C[NH+](C)C)c(O)c(C[NH+](C)C)c1`, 6.33.
`CC(C)N/C=[NH+]/c1ccc(-c2cn(C)cn2)cc1` had a pKa (basic group) of 5.39.
Consider `Cc1cc(N)cc(C)c1C(=O)NCCN1CCOCC1`, for which the pKa (basic group) was determined as 5.96.
For the compound `COC(=S)C1c2ccccc2-c2ccccc21`, for the setting “acidic group”, the pKa was determined as 7.4.
Still for that read-out and setting: in the case of `CCC(CC)C(=O)O[C@H]1O[C@@H](C(=O)O)[C@H](O)[C@@H](O)[C@@H]1O` it was 3.37.
With `CCC(C)[C@H](N)C(=O)[O-]` (stereo partly drawn), the pKa (basic group) was determined as 9.62.
On the same count and under the same terms, as for `CC(=O)CCCCN(C)C`, the figure is 9.66.
For the setting “acidic group”, `Oc1cccc(I)c1` returned a pKa of 9.02.
On the same count and under the same terms, in the case of `O=C(O)c1cccc2ccc[nH+]c12` it was 1.9.
The compound `CCCCN(CC[S-])CCCC` gave a pKa (basic group) of 11.6.
As for `Nc1ccnc(-c2cc(Cl)ccn2)c1`, the pKa (basic group) is 7.4.
In turn, `CCC1C(=O)COC1=O` (stereo not drawn) displayed a pKa (acidic group) of 4.29.
Compound `NCCCCCCCC(=O)[O-]` displayed a pKa (basic group) of 11.
`Cc1ccccc1O` came in with a pKa (acidic group) of 10.2.
With `NC(=S)c1ccc([N+](=O)[O-])cc1`, where the note is “acidic group”, the pKa amounted to 11.8.
On the same count and under the same terms, in the case of `C[NH+](C)CCc1c[nH]c2ccc(O)cc12` it was 9.73.
Compound `[SH2+]c1ccc2ncccc2c1` showed a pKa (basic group) of 3.95.
In the case of `C[N+](C)(C)CCCC(=O)O`, the pKa (acidic group) was 4.02.
`Cc1cc(C)c2ccc3c(C)cc(C)nc3c2n1` displayed a pKa (basic group) of 6.5.
As for `CC(=S)Nc1ccccc1`, where the note is “acidic group”, the pKa came to 11.6.
`O=S(=O)([O-])c1ccncc1`: under “basic group”, the pKa stood at 3.44.
The same measure, in the same setting: as for `Cc1ccccc1/C(=N\CCC[NH+](C)C)c1cccc2ccccc12`, the figure is 4.14.
`O=C(O)c1ccc([N+](=O)[O-])c2cccnc12` yielded a pKa (acidic group) of 1.41.
The compound `CC(C)(N)CO` came in with a pKa (basic group) of 9.74.
As to `[NH3+]c1cccc(O[C@H]2O[C@@H](C(=O)O)[C@H](O)[C@@H](O)[C@@H]2O)c1`, the pKa (acidic group) amounted to 2.97.
In the case of `COc1ccc(NC(=S)c2ccccc2)cc1`, for the setting “acidic group”, the pKa is 11.4.
In the case of `CNc1ncnc2scnc12`, under “basic group”, the pKa is 2.84.
`Cc1ccc(O)c(C(=O)O)c1`: the pKa (acidic group) turned out to be 3.01.
`O=C(O)c1cnc(Br)s1`: the pKa (acidic group) amounted to 2.96.
Take `CC[n+]1c([O-])ccnc1[S-]`: for the setting “basic group”, the pKa stood at 8.65.
Same read-out and setting: in the case of `CC(C)(C)c1cc(O)[nH]n1` it was 2.9; in that of `Cc1ccc(/N=N/c2ccc(N(C)C)cc2)cc1C`, 2.37.
Take `Cc1cc(C)c2nccc(NCCC[NH+](C)C)c2c1[N+](=O)[O-]`: where the note is “basic group”, the pKa came to 6.37.
Under “basic group”, `Nc1nc[nH+]c(N)c1N` gave a pKa of 1.47.
The compound `COc1ccc(O)cc1[N+](=O)[O-]` gave a pKa (acidic group) of 8.68.
As for `c1ccc(CNc2nc[nH+]c3[nH]cnc23)cc1`, the pKa (basic group) is -1.
The compound `C1CNCCSCCN1` gave a pKa (basic group) of 10.
As to `O=S(Cc1ccccc1)c1ncc[nH]1` (stereo not drawn), the pKa (acidic group) was 9.8.
Same read-out and setting: as for `CCP(=O)(CC)CC(C)=O`, the figure is 11.9.
Regarding `C#CCN1CCOCC1`, the pKa (basic group) turned out to be 5.54.
Same read-out and setting: in the case of `CN(C)c1ccc(/C=N/c2ncc3nc[nH]c3n2)cc1` it was 5.26; in that of `Brc1ccc2nc3c(c(N4CCOCC4)c2c1)CCC3`, 6.38; in that of `Cc1cccc(N)c1-c1c(C)cccc1[NH3+]`, 2.1.
The same measure, in the same setting: as for `NCCC[n+]1cc(Br)c2ccccc2c1`, the figure is 9.53.
Compound `CC(=O)CC(=O)Nc1cccc(C)c1` came in with a pKa (acidic group) of 10.
`CCc1c(C)nnc(C)c1C` showed a pKa (basic group) of 5.17.
The same measure, in the same setting: as for `C#CCCN(C)C`, the figure is 8.33.
Compound `O=Cc1ccc(O)cc1` yielded a pKa (acidic group) of 7.53.
Consider `C[C@H]1C[NH2+][C@@H](C)CN1`, for which the pKa (basic group) was found to be 5.23.
`CC[NH2+]CC(=O)O`: the pKa (acidic group) turned out to be 2.31.
On the same count and under the same terms, as for `Cc1nnc(C)n1N`, the figure is 9.85.
Under “acidic group”, `Oc1ccc2cc(Cl)ccc2c1` registered a pKa of 9.31.
Still for that read-out and setting: in the case of `C[N+]1(CCCC(=O)O)CCCCC1` it was 4.11.
Under “basic group”, `Nc1cc(/C=C/c2ccccc2)nc(/C=C/c2ccccc2)c1` had a pKa of 8.6.
Still for that read-out and setting: as for `O=[N+]([O-])c1ccc(NCO)cc1`, the figure is -0.33.
As to `CNc1nnc(S(N)(=O)=O)s1`, the pKa (acidic group) amounted to 7.8.
As for `Nc1nc(N)c2ccccc2n1`, for the setting “basic group”, the pKa was 8.12.
On the same count and under the same terms, in the case of `N=C(c1ccccc1)c1ccc(O)cc1` it was 6.45.
